Laboratory results published in patent US20260166029A1, “METHODS AND SYSTEMS FOR TREATING DISEASE USING AN ATR/CHK1 SIGNALING PATHWAY INHIBITOR” (Acrivon Therapeutics, Inc., priority 2022, published 2026).
Where two headings read alike, the source gives them in different places.

What was measured:
HCT116 [1] = assay: Cell viability, sensitivity to prexasertib (Example 1); set-up: species or system human; conditions: HCT116 cell line; based on EC50 from prior publications
Experimental: (§1) Predicted response to prexasertib was compared to experimentally measured sensitivity to prexasertib. […] EC50 values of less than or equal to 1 μM were considered to be actual responders, while values of greater than 1 μM were considered to be actual non-responders.

PANC1 [2] = assay: as above; set-up: species or system human; conditions: PANC1 cell line; based on EC50 from prior publications
Experimental: as §1

A2780 [3] = assay: Cell Titer Glo 2.0 relative cell viability, 72 h (Example 10); format: cell-based; conditions: Homo sapiens, A2780 cell line, read-out: Abs IC50
Experimental: (§2) The present Example provides experimental evidence that cell lines predicted to be sensitive to a Chk1 inhibitor (e.g., prexasertib, are also sensitive to Wee1 inhibitors (e.g., adavosertib (AZD1775, MK1775) and azenosertib (Zn-C3)). Cell lines were treated with increasing doses of either prexasertib, adavosertib, or azenosertib, and relative cell viability against a DMSO control was assessed 72 h after drug treatment using Cell Titer Glo 2.0 (Promega) and a SpectraMax microplate reader. The results are shown in FIGS. 19A-19C. Error bars represent standard deviations from quadruplicate samples.

BxPC3 = assay: as above; format: cell-based; conditions: Homo sapiens, BXPC-3, BxPC3 cell line, read-out: Abs IC50
Experimental: as §2

HeLa = assay: as above; format: cell-based; conditions: Homo sapiens, HeLa cell line, read-out: Abs IC50
Experimental: as §2

OVCAR3 = assay: as above; format: cell-based; conditions: Homo sapiens, OVCAR-3, OVCAR3 cell line, read-out: Abs IC50
Experimental: as §2

PC3 [4] = assay: as above; format: cell-based; conditions: Homo sapiens, PC-3, PC3 cell line, read-out: Abs IC50
Experimental: as §2

A2780 [5] = assay: Cell Titer Glo 2.0 viability, prexasertib alone or with gemcitabine, three days (Example 11); format: cell-based; conditions: Homo sapiens, A2780, 72 h
Experimental: (§3) The present Example provides experimental evidence that treatment with gemcitabine sensitizes human cancer cell lines to treatment with prexasertib. A panel of human cancer cell lines were treated with various concentrations of prexasertib (0.17, 0.51, 1.5, 4.6, 13.7, 31.2, 123.5, 370.4, 1111, 3333, and 10000 nM) alone or in combination with various low dose concentrations of gemcitabine (0.53 and 2.7 nM). The panel of cell lines included ovarian, endometrial, bladder, breast, and prostate cancer cell lines. Two ovarian cancer cell lines (OVCAR3 and OV90) were used to generate acquired prexasertib resistant cells. For both cell lines, the parental cells (OVCAR3-P and OV90-P) and acquired prexasertib resistant cells (OVCAR3-R and OV90-R) were tested. Additionally, the panel included three cell lines that are naïve resistant to prexasertib (SW780, T47D, and PC3). After three days of treatment, cell viability relative to DMSO control was assessed using Cell Titer Glo 2.0 (Promega).
(§4) To determine whether gemcitabine and prexasertib acts synergistically, additively, or potentially antagonistically, the panel of human cancer cell lines were treated with various concentrations of prexasertib (0.17, 0.51, 1.5, 4.6, 13.7, 31.2, 123.5, 370.4, 1111, 3333, and 10000 nM) in combination with various concentrations of gemcitabine (1, 3, 13, 67, 333, 1667, 8333 nM). After three days treatment, cell viability relative to DMSO control was assessed using Cell Titer Glo 2.0 (Promega). Drug combination effect was evaluated using SynergyFinder 2.0, see Ianevski et al., Nucleic Acids Res., gkaa216 (2020), and is presented in Table 15 as a Bliss synergy score for each cell line. Bliss synergy scores greater than 10 are indicative of a synergistic effect between prexasertib and gemcitabine, while scores between 10 and −10 are indicative of an additive effect and scores less than −10 are indicative of an antagonistic effect. […] Taken together, the results of this Example support use of a combination of prexasertib and gemcitabine (e.g., low doses of gemcitabine) for treatment of predicted non-responders to prexasertib treatment.

AN3CA = assay: as above; format: cell-based; conditions: Homo sapiens, AN3-CA, 72 h
Experimental: as §3, §4

KLE = assay: as above; format: cell-based; conditions: Homo sapiens, 72 h, read-out: Prexasertib Relative IC50
Experimental: as §3, §4

OV90-P = assay: as above; format: cell-based; conditions: Homo sapiens, 72 h
Experimental: as §3, §4

OV90-R = assay: as above; format: cell-based; conditions: Homo sapiens, 72 h, gemcitabine 0.53 nM, read-out: Prexasertib Relative IC50
Experimental: as §3, §4

OVCAR3-P = assay: as above; format: cell-based; conditions: Homo sapiens, 72 h
Experimental: as §3, §4

PC3 [6] = assay: as above; format: cell-based; conditions: Homo sapiens, PC-3, 72 h, gemcitabine 0.53 nM, read-out: Prexasertib Relative IC50
Experimental: as §3, §4

T47D = assay: as above; format: cell-based; conditions: Homo sapiens, 72 h, gemcitabine 0.53 nM, read-out: Prexasertib Relative IC50
Experimental: as §3, §4

TCCSUP = assay: as above; format: cell-based; conditions: Homo sapiens, TCC-SUP, 72 h
Experimental: as §3, §4

HCT116 [7] = conditions: HCT116 cell line; external data from prior publications; cited from earlier work
PANC1 [8] = conditions: PANC1 cell line; external data from prior publications; cited from earlier work
Ovarian, metastases = conditions: cited from earlier work
[9] = gemcitabine 0 nM, read-out: Prexasertib Relative IC50
[10] = gemcitabine 0.53 nM, read-out: Prexasertib Absolute IC50
[11] = gemcitabine 0.53 nM, read-out: Prexasertib Relative IC50
[12] = gemcitabine 0 nM, read-out: Prexasertib Absolute IC50

IC50 (A2780 [3]): > 10000 nM
IC50 (BxPC3): 1.4 nM
IC50 (HeLa): 15 nM
IC50 (OVCAR3): 0.9 nM
IC50 (PC3 [4]): > 10000 nM
IC50 (A2780 [5]; [9]): 8.5 nM
IC50 (A2780 [5]; [10]): 0.5 nM
IC50 (A2780 [5]; [11]): 0.3 nM
IC50 (OVCAR3-P; [12]): 16 nM
IC50 (OVCAR3-P; [9]): 8 nM
IC50 (OVCAR3-P; [10]): 3 nM
IC50 (OVCAR3-P; [11]): 1.4 nM
IC50 (OVCAR3-P; gemcitabine 2.7 nM, read-out: Prexasertib Absolute IC50): 0.2 nM
IC50 (OVCAR3-P; gemcitabine 2.7 nM, read-out: Prexasertib Relative IC50): 0.1 nM
IC50 (PC3 [6]): 0.15 nM
IC50 (T47D): 0.22 nM
SMILES: COc1cccc(OCCCN)c1-c1cc(Nc2cnc(C#N)cn2)n[nH]1 [prexasertib, 5-(5-(2-(3-aminopropoxy)-6-methoxyphenyl)-1H-pyrazol-3-ylamino)pyrazine-2-carbonitrile]
Actual response status (HCT116 [1]): R (EC50 values of less than or equal to 1 μM were considered to be actual responders)
Actual response status (PANC1 [2]): NR (values of greater than 1 μM were considered to be actual non-responders)
IC50 (AN3CA; [12]): 2.2 nM
IC50 (AN3CA; [9]): 1.5 nM
IC50 (AN3CA; [10]): 0.3 nM
IC50 (AN3CA; [11]): 0.2 nM
IC50 (KLE; gemcitabine 0 nM): 0.36 nM
IC50 (KLE; gemcitabine 0.53 nM): 0.02 nM
IC50 (OV90-P; [12]): 49 nM
IC50 (OV90-P; [9]): 0.5 nM
IC50 (OV90-P; [10]): 0.93 nM
IC50 (OV90-P; [11]): 0.14 nM
IC50 (OV90-R): 0.03 nM
IC50 (TCCSUP; [12]): 2.8 nM
IC50 (TCCSUP; [9]): 1.4 nM
IC50 (TCCSUP; [10]): 0.08 nM
IC50 (TCCSUP; [11]): 0.04 nM
EC50 (HCT116 [7]): 100 nM
EC50 (PANC1 [8]): > 10000 nM
ORR in trials (Ovarian, metastases; Ovarian, metastases, trial 1, NCI phase II trial): 32% (trial 1*)
response rate (Ovarian, metastases; single center, phase 2 study in ovarian cancer at NCI, single agent): 29%
